Results taken from patent publication US7731960B2, “Antibodies that inhibit transport activity of peptide transporters” (Chugai Seiyaku Kabushiki Kaisha, priority 2003, dated 2010).

Legend:
Type in all cases: cell-based
human PepT1 = biological target: T1, human PepT1 (Homo sapiens, UniProt P46059); assay: [14C] glycylsarcosine uptake into BaF3/PepT1 cells; details: FIG. 2
T1 sequence (P46059 1-708): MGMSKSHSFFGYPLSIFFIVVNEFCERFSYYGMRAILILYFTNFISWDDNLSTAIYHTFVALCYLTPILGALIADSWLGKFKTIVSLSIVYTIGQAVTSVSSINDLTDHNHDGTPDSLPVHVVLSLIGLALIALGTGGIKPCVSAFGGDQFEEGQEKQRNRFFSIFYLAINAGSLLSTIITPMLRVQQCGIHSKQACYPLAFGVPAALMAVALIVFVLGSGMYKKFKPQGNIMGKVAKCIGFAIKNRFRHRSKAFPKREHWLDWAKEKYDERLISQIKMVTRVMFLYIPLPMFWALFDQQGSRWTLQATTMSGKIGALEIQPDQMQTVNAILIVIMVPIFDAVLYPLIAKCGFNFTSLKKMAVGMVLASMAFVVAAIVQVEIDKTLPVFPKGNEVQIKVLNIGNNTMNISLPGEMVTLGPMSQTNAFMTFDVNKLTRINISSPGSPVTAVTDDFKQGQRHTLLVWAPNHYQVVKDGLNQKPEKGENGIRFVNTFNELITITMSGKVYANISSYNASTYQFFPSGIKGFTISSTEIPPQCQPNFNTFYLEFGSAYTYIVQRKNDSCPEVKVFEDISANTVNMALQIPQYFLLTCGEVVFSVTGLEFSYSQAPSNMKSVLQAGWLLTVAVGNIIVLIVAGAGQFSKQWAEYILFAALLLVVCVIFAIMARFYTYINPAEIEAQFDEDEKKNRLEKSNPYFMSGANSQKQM
Excerpt: FIG. 2 is a graph showing the PepT1 inhibiting ability of AT-264 in BaF3 cells.
The ability of AT-264 to inhibit PepT1 was examined by forcedly expressing human PepT1 in mouse bone marrow-derived BaF3 cells (hereinafter abbreviated as BaF3/PepT1).

[1] = tested on: human pancreatic cancer cell line AsPC-1; assay: Cell growth inhibition of AsPC-1, MTS assay after six days of culture
Method: FIG. 3 is a graph showing the cell growth inhibitory effect of AT-264 against human pancreatic cancer cell line AsPC-1. The data are shown as an average±S.D. (n=3 to 4).
(§1) AT-264 was dissolved in RPMI1640-10 mM Hepes (hereinafter, abbreviated as ‘the medium’) containing 0.5% ethanol and 0.5% DMSO to prepare 2.5 mM AT-264 solution. Then, this solution was diluted with the medium to prepare 0.625 mM and 0.0625 mM AT-264 solutions.
A 5×10^4 cells/mL solution of human pancreatic cancer cell line AsPC-1 was prepared using a medium containing 50% FBS. This suspension was seeded at 40 μL/well (2×10^3 cells) onto a 96-well plate pre-coated with Collagen type I, and 160 μL of the AT-264 solution was added. This was cultured for six days in a CO2 incubator (on the second day of culture, 100 units/mL penicillin and 0.1 mg/mL streptomycin were added). On the sixth day of culture, the number of viable cells was quantified by MTS assay.

human PepT2 = biological target: T2, human PepT2 (Homo sapiens, UniProt Q16348); assay: [3H] glycylsarcosine uptake into BaF3/PepT2 cells; details: FIG. 4
T2 construct: expressed in transfected cells; host or cells: murine bone marrow-derived BaF3 cells
T2 sequence (Q16348 1-729): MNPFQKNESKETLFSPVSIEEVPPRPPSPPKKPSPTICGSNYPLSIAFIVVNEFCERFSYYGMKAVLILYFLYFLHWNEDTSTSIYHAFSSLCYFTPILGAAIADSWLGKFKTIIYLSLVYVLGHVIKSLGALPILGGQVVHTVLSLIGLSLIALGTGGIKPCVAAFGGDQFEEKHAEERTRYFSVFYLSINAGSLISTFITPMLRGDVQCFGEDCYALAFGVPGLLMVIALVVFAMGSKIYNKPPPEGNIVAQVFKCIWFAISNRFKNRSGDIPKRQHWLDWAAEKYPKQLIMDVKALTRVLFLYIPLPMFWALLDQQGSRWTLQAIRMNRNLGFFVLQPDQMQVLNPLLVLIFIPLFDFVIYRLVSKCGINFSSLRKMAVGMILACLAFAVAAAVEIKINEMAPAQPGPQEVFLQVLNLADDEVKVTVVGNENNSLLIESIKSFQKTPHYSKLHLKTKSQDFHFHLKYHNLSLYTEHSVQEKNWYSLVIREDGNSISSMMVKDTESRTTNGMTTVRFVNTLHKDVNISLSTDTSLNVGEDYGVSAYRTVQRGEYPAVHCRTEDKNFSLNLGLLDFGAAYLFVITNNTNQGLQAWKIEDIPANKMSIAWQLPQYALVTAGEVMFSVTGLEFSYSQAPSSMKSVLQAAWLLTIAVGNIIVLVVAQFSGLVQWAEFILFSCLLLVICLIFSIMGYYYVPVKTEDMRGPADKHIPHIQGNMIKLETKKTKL
Excerpt: FIG. 4 is a graph showing the PepT2 inhibiting ability of AT-264 in BaF3/PepT2. The data are shown as an average±S.D. (n=3 to 4).
The ability of AT-264 to inhibit PepT2 was examined using a murine bone marrow-derived cell line BaF3 in which human PepT2 is forcedly expressed (hereinafter, abbreviated as BaF3/PepT2).

[2] = tested on: human pancreatic cancer cell line BxPC-3; assay: Cell growth inhibition of BxPC-3, MTS assay after six days of culture
Method: FIG. 5 is a graph showing the cell growth inhibitory effect of AT-264 against human pancreatic cancer cell line BxPC-3. The data are shown as an average±S.D. (n=6).
as §1, with “Hepes with 100 units/mL penicillin and 0.1 mg/mL streptomycin” for “Hepes”, “Furthermore,” for “Then,”
5×10^4 cells/mL solution of BxPC-3 was prepared using the medium containing 50% FBS. This suspension was seeded at 40 μL/well (2×10^3 cells) onto a 96-well plate pre-coated with Collagen type I, and 160 μL of AT-264 solution was added. This was cultured for six days in a CO2 incubator, and on the sixth day of culture, the number of viable cells was quantified by MTS assay.

## N=C(N)c1cccc(CC(NS(=O)(=O)NCc2cccc3ccccc23)C(=O)N2CCCCC2C(=O)O)c1 (centres unmarked) [AT-264]
Human PepT1
  uptake of [14C] glycylsarcosine into cells: inhibited in a concentration-dependent manner
[1]; AsPC-1, 0.5 mM AT-264, six days, MTS assay
  cell growth inhibition: slight
[1]; AsPC-1 in the presence of AT-264
  morphological changes under the microscope: not observed
[1]; Homo sapiens, ASPC1, 144 h, AsPC-1, 2 mM AT-264, six days, MTS assay
  inhibition at 2000 µM: ~30%
Human PepT2
  uptake of [3H] glycylsarcosine into cells: inhibited in a concentration-dependent manner
[2]; BxPC-3 in the presence of AT-264
  morphological changes under the microscope: not observed
[2]; Homo sapiens, 144 h, BxPC-3, 0.5 mM AT-264, six days, MTS assay
  inhibition at 500 µM: ~20%
[2]; Homo sapiens, 144 h, BxPC-3, 2 mM AT-264, six days, MTS assay
  inhibition at 2000 µM: ~75%
